According to patent US8168648B2, “Camptothecin derivatives and uses thereof” (Taiwan Liposome Co., Ltd., priority 2009, dated 2012):

Columns and labels:
Type in all cases: cell-based
[1] = test system: PC14PE6/AS2; assay: In vitro cytotoxicity assay (SRB), PC14PE6/AS2; conditions: PC14PE6/AS2 (Non-small cell lung cancer), 72 hours of incubation
[2] = test system: HCT-116; assay: In vitro cytotoxicity assay (SRB), HCT-116; conditions: HCT-116 (Human colon cancer), 72 hours of incubation
[3] = test system: HT-29; assay: In vitro cytotoxicity assay (SRB), HT-29; conditions: HT-29 (Human colon cancer), 72 hours of incubation
[4] = test system: MCF-7; assay: In vitro cytotoxicity assay (SRB), MCF-7; conditions: MCF7, MCF-7 (Human breast cancer), 72 hours of incubation
[5] = test system: DMS-114; assay: In vitro cytotoxicity assay (SRB), DMS-114; conditions: Homo sapiens, DMS-114 (Small cell lung cancer), 72 hours of incubation

Structure (SMILES)	IC50 [1] [nM]	IC50 [2] [nM]	IC50 [3] [nM]	IC50 [4] [nM]	IC50 [5] [nM]
CC[C@@]1(OC(=O)[C@H](C)O)C(=O)OCc2c1cc1n(c2=O)Cc2cc3c(CN(C)C)c(O)ccc3nc2-1 [S,S-topotecan lactate (U2), S,S-topotecan lactate]	74	45	56	143	26
CC[C@@]1(OC(=O)[C@@H](C)O)C(=O)OCc2c1cc1n(c2=O)Cc2cc3c(CN(C)C)c(O)ccc3nc2-1 [S,R-topotecan lactate (U1), S,R-topotecan lactate]	21	58	56	194	53
